Test results as given in US11673910B2, “Macrolides with modified desosamine sugars and uses thereof” (Zikani Therapeutics, Inc., priority 2017, dated 2023).
≈ marks a conversion by molar mass, not a printed value.

Experiments:
Assay type in all cases: cell-based
[1] = test system: E. coli strain MP-4; assay: Broth dilution MIC determination (CLSI) against E. coli strain MP-4; conditions: Escherichia coli, MP4
Procedure, shortened: (§1)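 Activity is reported in categories: ≤4 mg/L as "+++", 8 to below 32 mg/L as "++", and 32 mg/L or more as "+". Testing followed CLSI broth dilution procedures.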

[2] = test system: K. pneumoniae strain MP-548; assay: Broth dilution MIC determination (CLSI) against K. pneumoniae strain MP-548; conditions: Klebsiella pneumoniae, MP548
Procedure, shortened: as §1

[3] = test system: P. aeruginosa strain MP-3; assay: Broth dilution MIC determination (CLSI) against P. aeruginosa strain MP-3; conditions: Pseudomonas aeruginosa, MP3
Procedure, shortened: as §1

[4] = test system: A. baumannii strain MP-15; assay: Broth dilution MIC determination (CLSI) against A. baumannii strain MP-15; conditions: Acinetobacter baumannii, MP15
Procedure, shortened: as §1

[5] = test system: S. aureus strain MP-12; assay: Broth dilution MIC determination (CLSI) against S. aureus strain MP-12; conditions: Staphylococcus aureus, MP12, strain MP-12
Procedure, shortened: as §1

Row | Compound | MIC [1] [µg/mL] | MIC [2] [µg/mL] | MIC [3] [µg/mL] | MIC [4] [µg/mL] | MIC [5] [µg/mL]
1 | CC[C@H]1OC(=O)C(C)C(=O)[C@H](C)[C@@H](O[C@@H]2O[C@H](CN(C)C(=O)CN(C)C)CC(N(C)C)[C@H]2O)[C@](C)(OC)C[C@@H](C)CN[C@H](C)[C@H]2NC(=O)O[C@@]21C (some centres unmarked) [Compound 171, 3-Descladinosyl-3-oxo-6-O-methyl-N9a-desmethyl-11,12-dideoxy-12,11-(oxycarbonylimino)-6′-N-methyl-2″-dimethylamino-acetamide Azithromycin] | ≤ 4 | ≥ 32 | ≥ 32 | ≥ 32 | ≥ 32
2 | CC[C@H]1OC(=O)C(C)C(=O)[C@H](C)[C@@H](OC2OC(CN3CCCC3)CC(N(C)C)C2O)[C@](C)(OC)C[C@@H](C)CN[C@H](C)[C@H]2NC(=O)O[C@@]21C (some centres unmarked) [Compound 122, 3-Descladinosyl-3-oxo-6-O-methyl-N9a-desmethyl-11,12-dideoxy-12,11-(oxycarbonylimino)-6′-(1-pyrrolodinyl) Azithromycin] | ≤ 4 | 8 to 32 (≈ 11.7 to 46.9 µM) | ≥ 32 | ≥ 32 | ≥ 32
3 | CC[C@H]1OC(=O)[C@@]2(C)CCOC(C)(C[C@@H](C)CN(CC)[C@H](C)[C@H]3NC(=O)O[C@@]31C)[C@H](O[C@@H]1OC(C)CC(N(C)C)C1O)[C@@H](C)C2=O (some centres unmarked) [Compound 221] | ≤ 4 | ≤ 4 | ≥ 32 | ≥ 32 | ≤ 4
4 | CC[C@H]1OC(=O)C(C)C(=O)[C@H](C)[C@@H](O[C@@H]2OC(CNCc3ccc4nccnc4c3)CC(N(C)C)C2O)[C@](C)(OC)C[C@@H](C)CN[C@H](C)[C@H]2NC(=O)O[C@@]21C (some centres unmarked) [Compound 23] | ≤ 4 | ≥ 32 | ≥ 32 | ≥ 32 | ≥ 32
5 | CC[C@H]1OC(=O)C(C)C(=O)[C@H](C)[C@@H](OC2OC(C(=O)N(C)C3CC3)CC(N(C)C)C2O)[C@](C)(OC)C[C@@H](C)CN[C@H](C)[C@H]2NC(=O)O[C@@]21C (some centres unmarked) [Compound 168, 3-Descladinosyl-3-oxo-6-O-methyl-N9a-desmethyl-11,12-dideoxy-12,11-(oxycarbonylimino)-5′-desmethyl-5′-(N,N-cyclopropyl(methyl)carboxamido) Azithromycin] | ≥ 32 | ≥ 32 | ≥ 32 | ≥ 32 | ≥ 32
6 | CC[C@H]1OC(=O)C(C)C(=O)[C@H](C)[C@@H](OC2OC(CN(C)C34CC(C3)C4)CC(N(C)C)C2O)[C@](C)(OC)C[C@@H](C)CN[C@H](C)[C@H]2NC(=O)O[C@@]21C (some centres unmarked) [Compound 152, 3-Descladinosyl-3-oxo-6-O-methyl-N9a-desmethyl-11,12-dideoxy-12,11-(oxycarbonylimino)-6′-bicyclo[1.1.1]pentanylmethylamino Azithromycin] | ≥ 32 | ≥ 32 | ≥ 32 | 8 to 32 (≈ 11.3 to 45.1 µM) | 8 to 32 (≈ 11.3 to 45.1 µM)
7 | CC[C@H]1OC(=O)C(C)C(=O)[C@H](C)[C@@H](O[C@@H]2OC(CNCc3ccccc3)CC(N(C)C)C2O)[C@](C)(OC)C[C@@H](C)CN[C@H](C)[C@H]2NC(=O)O[C@@]21C (some centres unmarked) [Compound 28] | ≤ 4 | ≥ 32 | ≥ 32 | ≥ 32 | ≥ 32
8 | CC[C@H]1OC(=O)C(C)C(=O)[C@H](C)[C@@H](OC2OC(CNC)CC(N(C)C)C2O)[C@](C)(OC)C[C@@H](C)CN[C@H](C)[C@H]2NC(=O)O[C@@]21C (some centres unmarked) [Compound 106, 3-Descladinosyl-3-oxo-6-O-methyl-N9a-desmethyl-11,12-dideoxy-12,11-(oxycarbonylimino)-6′-methylamino Azithromycin] | 8 to 32 (≈ 12.4 to 49.8 µM) | ≥ 32 | ≥ 32 | ≥ 32 | ≥ 32
9 | CC[C@H]1OC(=O)C(C)(C)C(=O)[C@H](C)[C@@H](O[C@@H]2O[C@H](CNC3CC3)CC(N(C)C)[C@H]2O)[C@](C)(OC)C[C@@H](C)CN(C)[C@H](C)[C@H]2NC(=O)O[C@@]21C (some centres unmarked) [Compound 190, 2-Methyl-3-descladinosyl-3-oxo-6-O-methyl-N9a-desmethyl-11,12-dideoxy-12,11-(oxycarbonylimino)-6′-cylcopropylamino Azithromycin] | ≥ 32 | ≥ 32 | ≥ 32 | ≥ 32 | ≥ 32
10 | CC[C@H]1OC(=O)C(C)C(=O)[C@H](C)[C@@H](O[C@@H]2OC(CNCc3ccc(Cl)cc3)CC(N(C)C)C2O)[C@](C)(OC)C[C@@H](C)CN[C@H](C)[C@H]2NC(=O)O[C@@]21C (some centres unmarked) [Compound 36] | ≤ 4 | ≥ 32 | ≥ 32 | ≥ 32 | ≥ 32
11 | CC[C@H]1OC(=O)[C@@](C)(F)C(=O)[C@H](C)[C@@H](O[C@@H]2OC(COC/C=C/c3cncnc3)CC(N(C)C)C2O)[C@](C)(OC)C[C@@H](C)C(=O)[C@H](C)[C@H]2NC(=O)O[C@@]21C (some centres unmarked) [Compound 105] | ≥ 32 | ≥ 32 | ≥ 32 | ≥ 32 | ≤ 4
12 | CC[C@H]1OC(=O)[C@@]2(C)CCOC(C)(C[C@@H](C)CN(C)[C@H](C)[C@H]3NC(=O)O[C@@]31C)[C@H](O[C@@H]1O[C@H](CNC3CC3)C[C@H](N(C)C)[C@H]1O)[C@@H](C)C2=O [Compound 208] | ≤ 4 | ≤ 4 | ≥ 32 | 8 to 32 (≈ 11.5 to 46 µM) | ≤ 4
13 | CC[C@H]1OC(=O)[C@@]2(C)CCOC(C)(C[C@@H](C)CN[C@H](C)[C@H]3NC(=O)O[C@@]31C)[C@H](O[C@@H]1OC(CNC(C)C)CC(N(C)C)C1O)[C@@H](C)C2=O (some centres unmarked) [Compound 213] | ≤ 4 | ≤ 4 | ≥ 32 | ≥ 32 | ≤ 4
14 | CC[C@H]1OC(=O)C(C)C(=O)[C@H](C)[C@@H](O[C@@H]2OC(CNCc3ccc(OC)cc3)CC(N(C)C)C2O)[C@](C)(OC)C[C@@H](C)CN[C@H](C)[C@H]2NC(=O)O[C@@]21C (some centres unmarked) [Compound 42] | ≤ 4 | ≥ 32 | ≥ 32 | ≥ 32 | ≥ 32
15 | CO[C@]1(C)C[C@@H](C)CN[C@H](C)[C@H]2NC(=O)O[C@]2(C)[C@@H](C)OC(=O)C(C)C(=O)[C@H](C)[C@H]1OC1OC(CNCC2CC2)CC(N(C)C)C1O (some centres unmarked) [Compound 148, 3-Descladinosyl-3-oxo-6-O-methyl-N9a-desmethyl-11,12-dideoxy-12,11-(oxycarbonylimino)-6′-cyclopropylmethylamino-13-methyl Azithromycin] | ≥ 32 | ≥ 32 | ≥ 32 | ≥ 32 | ≥ 32
16 | CC[C@H]1OC(=O)C(C)C(=O)[C@H](C)[C@@H](O[C@@H]2O[C@H](C(C)N(CC3CC3)CC3CC3)CC(N(C)C)[C@H]2O)[C@](C)(OC)C[C@@H](C)CN[C@H](C)[C@H]2NC(=O)O[C@@]21C (stereo partly drawn) [Compound 177, 3-Descladinosyl-3-oxo-6-O-methyl-N9a-desmethyl-11,12-dideoxy-12,11-(oxycarbonylimino)-6′-((R,S)-(dicyclopropylmethylamino)ethyl) Azithromycin] | 8 to 32 (≈ 10.7 to 42.6 µM) | ≥ 32 | ≥ 32 | ≥ 32 | ≥ 32
17 | CC[C@H]1OC(=O)C(C)C(=O)[C@H](C)[C@@H](O[C@@H]2OC(CNc3ccccn3)CC(N(C)C)C2O)[C@](C)(OC)C[C@@H](C)CN[C@H](C)[C@H]2NC(=O)O[C@@]21C (some centres unmarked) [Compound 51] | ≤ 4 | 8 to 32 (≈ 11.3 to 45.3 µM) | ≥ 32 | ≥ 32 | ≥ 32
18 | CC[C@H]1OC(=O)C(C)C(=O)[C@H](C)[C@@H](OC2OC(C(=O)N(C)C)CC(N(C)C)C2O)[C@](C)(OC)C[C@@H](C)CN[C@H](C)[C@H]2NC(=O)O[C@@]21C (some centres unmarked) [Compound 167, 3-Descladinosyl-3-oxo-6-O-methyl-N9a-desmethyl-11,12-dideoxy-12,11-(oxycarbonylimino)-5′-desmethyl-5′-(N,N-dimethylcarboxamido) Azithromycin] | ≥ 32 | ≥ 32 | ≥ 32 | ≥ 32 | ≥ 32
19 | C=CC1CC(N(C)C)C(O)[C@H](O[C@@H]2[C@@H](C)C(=O)[C@]3(C)CCOC2(C)C[C@@H](C)CN[C@H](C)[C@H]2NC(=O)O[C@]2(C)[C@@H](CC)OC3=O)O1 (some centres unmarked) [Compound 211] | ≤ 4 | ≤ 4 | ≥ 32 | ≤ 4 | ≤ 4
20 | CC[C@H]1OC(=O)C(C)C(=O)[C@H](C)[C@@H](O[C@@H]2OC(CNCc3ccn(C)n3)CC(N(C)C)C2O)[C@](C)(OC)C[C@@H](C)CN[C@H](C)[C@H]2NC(=O)O[C@@]21C (some centres unmarked) [Compound 21] | ≥ 32 | ≥ 32 | ≥ 32 | ≥ 32 | ≥ 32
21 | CC[C@H]1OC(=O)C(C)C(=O)[C@H](C)[C@@H](OC2OC(CN3CCOCC3)CC(N(C)C)C2O)[C@](C)(OC)C[C@@H](C)CN[C@H](C)[C@H]2NC(=O)O[C@@]21C (some centres unmarked) [Compound 132, 3-Descladinosyl-3-oxo-6-O-methyl-N9a-desmethyl-11,12-dideoxy-12,11-(oxycarbonylimino)-6′-(1-morpholino) Azithromycin] | ≤ 4 | 8 to 32 (≈ 11.4 to 45.8 µM) | ≥ 32 | ≥ 32 | 8 to 32 (≈ 11.4 to 45.8 µM)
22 | CO[C@]1(C)C[C@@H](C)CN[C@H](C)[C@H]2NC(=O)O[C@]2(C)[C@@H](C)OC(=O)C(C)C(=O)[C@H](C)[C@H]1OC1OC(CN(C)CC2CC2)CC(N(C)C)C1O (some centres unmarked) [Compound 156, 3-Desdadinosyl-3-oxo-6-O-methyl-N9a-desmethyl-11,12-dideoxy-12,11-(oxycarbonylimino)-6′-methylcyclopropylmethyl-13-methyl Azithromycin] | ≥ 32 | ≥ 32 | ≥ 32 | ≥ 32 | ≥ 32
